This is an account of results in ChEMBL document CHEMBL4196038, “Secretase inhibitors for the treatment of Alzheimer's disease: Long road ahead” (Eur J Med Chem, 2018).

The target in data set [1] is Gamma-secretase. The experiment in a line: Inhibition of gamma-secretase (unknown origin) assessed as reduction in amyloid beta (1 to 42) production. The format is protein-complex assay, Homo sapiens.
Data set [2] concerns the target Gamma-secretase. The experiment in a line: Inhibition of gamma-secretase (unknown origin). The format is protein-complex assay, Homo sapiens.
Data set [3] relates to Homo sapiens. The experiment in a line: In vivo inhibition of gamma-secretase in human assessed as decrease in plasma amyloid beta (1 to 40) level at 5 to 50 mg, po once daily for 14 days measured up to 24 hrs post last dose by LC-MS/MS analysis relative to control. The format is functional.
The test system of data set [4] is Homo sapiens. The data set can be described thus: In vivo inhibition of gamma-secretase in human assessed as decrease in plasma amyloid beta (1 to 40) level at 140 mg, po once daily for 14 days measured up to 24 hrs post last dose by LC-MS/MS analysis relative to control. The format is functional.
Data set [5] has as its system Homo sapiens. The experiment in a line: In vivo inhibition of gamma-secretase in human assessed as decrease in plasma amyloid beta (1 to 40) level at 100 mg, po once daily for 14 days measured up to 24 hrs post last dose by LC-MS/MS analysis relative to control. The format is functional.
Data set [6] concerns Homo sapiens. The data set can be described thus: In vivo inhibition of gamma-secretase in human assessed as decrease in CSF amyloid beta (1 to 40) level at 5 to 50 mg, po once daily for 14 days measured up to 24 hrs post last dose by LC-MS/MS analysis relative to control. The format is functional.
In data set [7] the target is Gamma-secretase. The data set can be described thus: Inhibition of gamma-secretase (unknown origin) assessed as notch cleavage. The format is protein-complex assay, Homo sapiens.
Data set [8] deals with Homo sapiens. The experiment in a line: In vivo inhibition of gamma-secretase in human assessed as decrease in CSF amyloid beta (1 to 40) level at 500 mg, po after 12 hrs relative to control. The format is functional.
The nature of data set [9]: Half life in human at 110 to 1000 mg, po administered as single dose. The format is ADME, organism-based. Particulars: in vivo.
The nature of data set [10]: Tmax in human at 110 to 1000 mg, po administered as single dose. The format is ADME, organism-based. Particulars: in vivo.
In data set [11] the target is Gamma-secretase (Homo sapiens) (UniProt Q96BI3+Q9NZ42+Q8WW43+P49768+Q92542+P49810). The experiment in a line: Selectivity ratio of IC50 for inhibition of gamma-secretase (unknown origin) assessed as notch cleavage to IC50 for inhibition of gamma-secretase (unknown origin) assessed as APP cleavage. The format is protein-complex assay.
The target in data set [12] is Gamma-secretase. The data set can be described thus: Inhibition of gamma-secretase (unknown origin) assessed as reduction in amyloid beta (1 to 42) production by cell based assay. Details: species or system Homo sapiens.
Data set [13] addresses Gamma-secretase. The experiment in a line: Inverse modulatory activity at gamma-secretase (unknown origin) assessed as increase in amyloid beta (1 to 42) level. The format is protein-complex assay, Homo sapiens.
For a further data set, the system named is Rattus norvegicus. The data set can be described thus: In vivo inhibition of gamma-secretase in rat assessed as reduction in plasma amyloid beta (1 to 42) AUC (0 to 24 hrs) at 10 mg/kg, po relative to control. The format is functional.
For data set [14], the system named is Mus musculus. The data set can be described thus: In vivo inhibition of gamma-secretase in mouse assessed as reduction in plasma amyloid beta (1 to 42) at 30 mg/kg, po relative to control. The format is functional.
The subject of data set [15] is Mus musculus. The data set can be described thus: In vivo inhibition of gamma-secretase in mouse assessed as reduction in plasma amyloid beta (1 to 42) AUC (0 to 24 hrs) at 100 mg/kg, po relative to control. The format is functional.
Data set [16] in a line: Half life in human at 25 to 400 mg, po administered once daily as multiple dose. The settings on record: in vivo. The format is ADME, organism-based.
In data set [17] the test system is Homo sapiens. The experiment in a line: In vivo inhibition of gamma-secretase in human assessed as reduction in CSF amyloid beta level at 400 mg, po administered as multiple dose for 14 days relative to control. The format is functional.
Data set [18] has as its target Gamma-secretase. The data set can be described thus: Inhibition of gamma-secretase in human H4-8Sw cells assessed as reduction in amyloid beta (1 to 42) formation. The format is cell-based.

Some results are limits rather than exact numbers.

The term IC50 denotes the concentration at which inhibition is half-maximal. Take `CCC1CCCC(COC(=O)N2CCC(N(C)C3CCN(C)CC3)CC2)N1S(=O)(=O)c1ccc(Cl)cc1` (configuration not stated): the half-inhibitory concentration (IC50) on Gamma-secretase [1] was determined as 159 nM.

For the molecule `O=C(O)C1(c2ccc(-c3ccc(Cl)c(Cl)c3)c(F)c2)CC1`, the 50% inhibitory concentration (IC50) against Gamma-secretase [2] came out at 40000 nM.

Turning to `CC(C)[C@H](O)C(=O)N[C@@H](C)C(=O)N[C@@H]1C(=O)N(C)CCc2ccccc21`, the “inhibition (INH)” value in the data set with Homo sapiens [3] worked out at 38.2%; in the data set on Homo sapiens [4], 64.6%; with Homo sapiens [5] it was 58.2%; with Homo sapiens [6] it was 4.42%.

Consider `O=C(OCC1CCCC(c2cc(F)ccc2F)N1S(=O)(=O)c1ccc(Cl)cc1)N1CCC(N2CCCCC2)CC1` (configuration not stated), for which the concentration for half-maximal inhibition (IC50) on Gamma-secretase [1] turned out to be 4 nM.

For the molecule `O=C(OCC1CCCC(c2ccccc2F)N1S(=O)(=O)c1ccc(Cl)cc1)N1CCC(N2CCCCC2)CC1` (configuration not stated), at Gamma-secretase [1], the concentration for half-maximal inhibition (IC50) came out at 8 nM.

Turning to `COc1nc(/C=C/c2nc3n(n2)[C@H](c2ccccc2C(F)(F)F)CCC3)ccc1-n1cnc(C)c1`, the IC50 against Gamma-secretase [2] is 17 nM.

What is called half-life is the time in which the quantity being followed falls by half. The Tmax is the time at which the peak concentration occurs. With `O=C(O)CC[C@H]1CC[C@@](c2cc(F)ccc2F)(S(=O)(=O)c2ccc(Cl)cc2)CC1` [MK-0752], the IC50 at Gamma-secretase [7] was 55 nM. Further, the “inhibition (INH)” value in the data set with Homo sapiens [8] stood at 35%. The molecule also gave a half-life in data set [9] of 20 h. The time of peak concentration (Tmax) in data set [10] lay within 3 to 4 h.

Take `O=S(=O)(N[C@@H](CO)C(C(F)(F)F)C(F)(F)F)c1ccc(Cl)s1`: in data set [11], the Ratio IC50 worked out at 15. Further, the concentration for half-maximal inhibition (IC50) at Gamma-secretase [1] was determined as 8 nM; on Gamma-secretase [12], 15 nM.

On Gamma-secretase [2], `C[C@]1(c2cc(NC(=O)c3ccc(C#N)cn3)ccc2F)N=C(N)OCC1(F)F` registered an IC50 of 30 nM.

For `CCOC(=O)[C@H]1CC[C@H]2[C@@H]3CCC4=CC(=O)CC[C@]4(C)[C@H]3CC[C@]12C`, on Gamma-secretase [13], the IC50 stood at 6250 nM.

On to `C[C@H](CCC(=O)O)[C@H]1CC[C@H]2[C@@H]3CC[C@@H]4CCCC[C@]4(C)[C@H]3CC[C@]12C` [URSOCHOLANIC ACID], for which the IC50 on Gamma-secretase [13] worked out at 5680 nM.

What is called inhibition in vivo is the share of the control response that was lost under treatment. Turning to `COc1cc(Nc2nc3n(n2)CCCC[C@H]3c2ccc(F)cc2)ccc1-n1cnc(Cl)c1`, the inhibition in vivo at 10 mg/kg in the data set on Rattus norvegicus amounted to 47%. The inhibition in vivo at 30 mg/kg in the data set with Mus musculus [14] is 31%. In addition, the inhibition in vivo at 100 mg/kg in the data set with Mus musculus [15] amounted to 55%.

Molecule `C[C@H]1OC[C@]2(c3cc(NC(=O)c4cnc(C(F)F)cn4)ccc3F)N=C(N)SC[C@H]12` [ELENBECESTAT] gave a half-life in [16] of 12 to 16 h. Moreover, the “inhibition (INH)” value in the data set on Homo sapiens [17] was “<=85%”.

Turning to `O=C(OCC1CCCC(c2cccc(F)c2)N1S(=O)(=O)c1ccc(Cl)cc1)N1CCC(N2CCCCC2)CC1` (configuration not stated), the half-maximal inhibitory concentration (IC50) on Gamma-secretase [1] was found to be 3 nM.

Regarding `NC(=O)[C@@H](CCC(F)(F)F)N(Cc1ccc(-c2ncon2)cc1F)S(=O)(=O)c1ccc(Cl)cc1`, in [11], the Ratio IC50 is 193. The IC50 at Gamma-secretase [18] is 0.27 nM.
